Experimental data from US4073908A, “8-Amino-theophylline derivatives and therapeutic applications thereof” (Laboratoire le Brun S.A., priority 1975, dated 1978).

Tests used:
Assay type in all cases: in vivo
[1] = Acute toxicity in rats; conditions: rat, in vivo, po, single administration
Description: (§1) Acute toxicity in mice by the sub-cutaneous and oral routes and in rats by the oral route was investigated by determination of the death rate following a single administration of increasing dosages.
(§2) Symbol > means that the LD50 is not attained at the dosage indicated.

[2] = Acute toxicity in mice; conditions: mouse, in vivo, single administration
Description: as §1, §2

[3] = tested on: carrage enin-induced edema in rats; experiment: Anti-inflammatory: carrageenin-induced edema in rats; conditions: oral route
Method: The technique used was that of the carrage enin-induced edema in rats (oral route). The dosage which inhibits this edema by a factor of 50% was evaluated by interpolation.

[4] = tested on: rats; experiment: Acute toxicity in rats; conditions: single administration
Description: as §1, §2

[5] = tested on: mice; experiment: Acute toxicity in mice; conditions: single administration
Description: as §1, §2

[6] = po, read-out: LD50, oral route, mice
[7] = sc, read-out: LD50, s.c. route, mice

Cn1c(=O)c2c(nc3n2CCN3CCN2CCN(c3cc(Cl)cc(Cl)c3)CC2)n(C)c1=O [Compound 15]
LD50 [1]: > 100 mg/kg
LD50 [2, 6]: > 300 mg/kg
LD50 [2, 7]: > 300 mg/kg

CC(CN1CCn2c1nc1c2c(=O)n(C)c(=O)n1C)N1CCN(c2cccc(Cl)c2)CC1 (stereo not shown) [Compound 16]
LD50 [1]: > 100 mg/kg
LD50 [2, 6]: > 300 mg/kg
LD50 [2, 7]: > 300 mg/kg

Cn1c(=O)c2c(nc3n2CCN3CCCN2CCN(c3cccc(Cl)c3)CC2)n(C)c1=O [Compound 17]
LD50 [1]: > 100 mg/kg
LD50 [2, 6]: > 300 mg/kg
LD50 [2, 7]: > 300 mg/kg

CC(CN1CCCn2c1nc1c2c(=O)n(C)c(=O)n1C)N1CCN(c2cccc(Cl)c2)CC1 (stereo not shown) [Compound 19]
LD50 [1]: > 100 mg/kg
LD50 [2, 6]: > 300 mg/kg
LD50 [2, 7]: > 300 mg/kg

Cn1c(=O)c2c(nc3n2CCCN3CCCN2CCN(c3cccc(Cl)c3)CC2)n(C)c1=O [Compound 20]
LD50 [1]: > 100 mg/kg
anti-inflammatory activity (in words) [3]: the more active, the activities being substantially equivalent to those of phenyl butazone
LD50 [2, 6]: > 300 mg/kg
LD50 [2, 7]: > 300 mg/kg

CC1CN(CCN2CCn3c2nc2c3c(=O)n(C)c(=O)n2C)CCN1c1cccc(Cl)c1 (stereo not shown) [Compound 21]
LD50 [1]: > 100 mg/kg
LD50 [2, 6]: > 300 mg/kg
LD50 [2, 7]: > 300 mg/kg

CC1CN(CCN2CCn3c2nc2c3c(=O)n(C)c(=O)n2C)CCN1c1ccc(Cl)cc1 (stereo not shown) [Compound 22]
LD50 [1]: > 100 mg/kg
LD50 [2, 6]: > 300 mg/kg
LD50 [2, 7]: > 300 mg/kg

CCC1CN(CCN2CCn3c2nc2c3c(=O)n(C)c(=O)n2C)CCN1c1cccc(Cl)c1 (stereo not shown) [Compound 24]
LD50 [1]: > 100 mg/kg
LD50 [2, 6]: 300 mg/kg
LD50 [2, 7]: > 300 mg/kg

Cn1c(=O)c2c(nc3n2CCN3CCN2CCN(c3cccc(Cl)c3)C(COc3ccccc3)C2)n(C)c1=O (stereo not shown) [Compound 25]
LD50 [1]: > 100 mg/kg
LD50 [2, 6]: > 300 mg/kg
LD50 [2, 7]: > 300 mg/kg

Cn1c(=O)c2c(nc3n2CCCCN3CCN2CCN(c3cccc(Cl)c3)CC2)n(C)c1=O [Compound 26]
LD50 [1]: > 100 mg/kg
LD50 [2, 6]: > 300 mg/kg
LD50 [2, 7]: > 300 mg/kg

Cn1c(=O)c2c(nc3n2CCCCN3CCCN2CCN(c3cccc(Cl)c3)CC2)n(C)c1=O [Compound 27]
LD50 [1]: > 100 mg/kg
LD50 [2, 6]: > 300 mg/kg
LD50 [2, 7]: > 300 mg/kg

Cn1c(=O)c2c(nc3n2CCCN3CCCN2CCN(c3ccc(Cl)cc3)CC2)n(C)c1=O [Compound 28]
LD50 [1]: > 100 mg/kg
LD50 [2, 6]: > 300 mg/kg
LD50 [2, 7]: > 300 mg/kg

Cn1c(=O)c2c(nc3n2CCN3CCCCCCN2CCN(c3cccc(Cl)c3)CC2)n(C)c1=O [Compound 29]
LD50 [1]: > 100 mg/kg
LD50 [2, 6]: > 300 mg/kg
LD50 [2, 7]: > 300 mg/kg

Cn1c(=O)c2c(nc3n2CCCN3CCCCCCN2CCN(c3cccc(Cl)c3)CC2)n(C)c1=O [Compound 30]
LD50 [1]: > 100 mg/kg
LD50 [2, 6]: > 300 mg/kg
LD50 [2, 7]: > 300 mg/kg

Cn1c(=O)c2c(nc3n2CCN3CCN2CCN(c3cccc(Cl)c3)CC2)n(C)c1=O [Compound 31]
LD50, oral route, rats [4]: > 100 mg/kg
LD50, oral route, mice ([5]; oral route): 150 mg/kg
LD50, s.c. route, mice ([5]; s.c. route): > 300 mg/kg
